This is an account of results in patent US7297714B2, “Inhibitors of cathepsin S” (IRM LLC, priority 2003, dated 2007).

One may read the pKi as the Ki on a negative log10 scale, so that one unit is a factor of ten.

pKi: −log10 of the molar value.

Type in all cases: biochemical
One test has as its target Cathepsin L (Homo sapiens, UniProt P07711). Nature of the test: Cathepsin L inhibition assay, selectivity for cathepsin S over cathepsin L. The settings on record: ratio of cathepsin L inhibition constant to cathepsin S inhibition constant. The method, then:
The optimal substrate for cathepsin L, acetyl-histidine-lysine-phenylalanine-lysine-amino carbamoyl coumarin, was identified from screening a combinatorial library of fluorogenic peptide substrates (Harris, J. L., B. J. Backes, et al.; Proc Natl Acad Sci USA 2000, 97(14), 7754-9). Kinetic measurements are performed in a total reaction volume of 30 μl in 384-well microtiter plates. Cathepsin L, at a final concentration of 0.1 nM (active site), is incubated with the compounds at twelve varying concentrations in a buffer containing 100 mM NaAc (pH5.5), 1 mM EDTA, 100 mM NaCl, 0.01% Brij-35 for 20 minutes at room temperature. Control reactions in the absence of inhibitor are performed in replicates of 24. The reactions are initiated by adding the substrate, acetyl-histidine-lysine-phenylalanine-lysine-amino carbamoyl coumarin, to a final concentration of 20 μM. The rate of substrate hydrolysis is measured by monitoring the increase in fluorescence at an excitation wavelength of 380 nm and an emission wavelength of 450 nm that results from cleavage of the aniline bond in the substrate by the enzyme. The apparent inhibition constants for the compounds are determined from the enzyme progress curves (Kuzmic, P., K. C. Elrod, et al., Anal Biochem 2000, 286(1), 45-50) and are then used to calculate the inhibition constants for competitive inhibitors.
Selectivity for cathepsin S in the presence of cathepsin isozymes was determined by the ratio of the cathepsin isozyme inhibition constant of a compound of the present invention to the cathepsin S inhibition constant of the same compound. Preferred compounds of the present invention selective for cathepsin S have ratios of greater than 10. More preferred compounds of the present invention selective for cathepsin S have ratios of greater than 100. Most preferred compounds of the present invention selective for cathepsin S have ratios of greater than 1000.

In the next test the target is T1, Caspase 3 (Homo sapiens, UniProt P42574).
T1 sequence (P42574 29-175 limits assumed): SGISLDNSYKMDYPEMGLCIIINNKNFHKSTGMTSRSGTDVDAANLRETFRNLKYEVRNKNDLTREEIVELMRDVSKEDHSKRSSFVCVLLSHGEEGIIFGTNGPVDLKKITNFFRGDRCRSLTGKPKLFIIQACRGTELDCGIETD
T1 sequence (P42574 176-277 limits assumed): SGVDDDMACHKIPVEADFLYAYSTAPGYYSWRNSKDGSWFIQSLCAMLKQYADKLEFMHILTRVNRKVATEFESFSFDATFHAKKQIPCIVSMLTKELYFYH
Nature of the test: Inhibition Assay for Caspase 3. Particulars: Caspase-3 inhibition constant; pH7.4; read-out: Ki Cas-3. As to the method:
(§1) The widely used substrate for caspase 3, acetyl-aspartate-glutamate-valine-aspartic acid-amino carbamoyl coumarin, was used. Kinetic measurements are performed in a total reaction volume of 30 μl in 384-well microtiter plates. Caspase 3, at a final concentration of 0.2-1 nM (active site), is incubated with the compounds at twelve varying concentrations in a buffer containing 20 mM Hepes (pH7.4), 1 mM EDTA, 100 mM NaCl, 0.1% CHAPS, 10% sucrose, 10 mM DTT for 20 minutes at room temperature. Control reactions in the absence of inhibitor are performed in replicates of 12. The reactions are initiated by adding the substrate to a final concentration of 2 μM. The rate of substrate hydrolysis is measured by monitoring the increase in fluorescence at an excitation wavelength of 380 nm and an emission wavelength of 450 nm that results from cleavage of the aniline bond in the substrate by the enzyme. The apparent inhibition constants for the compounds are determined from the enzyme progress curves (Kuzmic, Elrod et al. 2000) and are then used to calculate the inhibition constants for competitive inhibitors (Km=9.71 μM).

The next test has as its target T2, Caspase 1 (Homo sapiens, UniProt P29466).
T2 sequence (P29466 120-297 limits assumed): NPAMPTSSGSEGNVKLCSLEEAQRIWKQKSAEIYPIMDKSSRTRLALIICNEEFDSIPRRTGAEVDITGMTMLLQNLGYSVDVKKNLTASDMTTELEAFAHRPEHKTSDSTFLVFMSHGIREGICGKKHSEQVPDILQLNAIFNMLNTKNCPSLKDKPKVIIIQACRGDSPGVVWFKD
T2 sequence (P29466 317-404 limits assumed): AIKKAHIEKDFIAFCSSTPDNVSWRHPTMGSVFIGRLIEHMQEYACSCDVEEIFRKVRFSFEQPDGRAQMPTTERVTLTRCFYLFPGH
Nature of the test: Inhibition Assay for Caspase 1. The settings on record: Caspase-1 inhibition constant; pH 7.4; read-out: Ki Cas-1. As to the method:
as §1, with “caspase 1, acetyl-tryptophan-glutamate-histidine-spartic” for “caspase 3, acetyl-aspartate-glutamate-valine-aspartic”, “Caspase 1,” for “Caspase 3,”, “Hepes (pH 7.4),” for “Hepes (pH7.4),”, “of 4” for “of 2”, “inhibitors (Km=8” for “inhibitors (Km=9.71”

Cathepsin L, sequence (P07711 114-333, species assumed): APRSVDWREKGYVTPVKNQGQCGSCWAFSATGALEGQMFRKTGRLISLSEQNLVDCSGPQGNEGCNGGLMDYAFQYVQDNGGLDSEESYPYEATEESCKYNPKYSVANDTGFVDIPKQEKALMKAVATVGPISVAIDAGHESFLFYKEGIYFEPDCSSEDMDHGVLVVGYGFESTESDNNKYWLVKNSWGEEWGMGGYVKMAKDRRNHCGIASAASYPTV

For the compound `O=C1C[C@H](NC(=O)[C@H](CC2CCCC2)NC(=O)c2ccc(-c3cccc(F)c3)o2)C(O)O1` (stereo partly drawn) [Example 1, (3S)-(3-Cyclopentyl-(2S)-{[5-(3-fluoro-phenyl)-furan-2-carbonyl]-amino}-propionylamino)-4-oxo-butyric acid], the “Selectivity for Cat. S over Cat. L” value at Cathepsin L was “++ (++, >100)”. Moreover, the pKi at Caspase 3 and on Caspase 1 was under 6.00 each time.
With `O=C1C[C@H](NC(=O)[C@H](CC2CCCC2)NC(=O)N2CCOCC2)C(O)O1` (stereo partly drawn) [Example 2, (3S)-{3-Cyclopentyl-(2S)-[(morpholine-4-carbonyl)-amino]-propionylamino}-4-oxo-butyric acid], at Cathepsin L, the “Selectivity for Cat. S over Cat. L” value is on record as “++ (++, >100)”. Also, the pKi was under 5.00 on Caspase 3 and under 4.00 on Caspase 1.
For `O=C1C[C@H](NC(=O)[C@H](CC2CCCCC2)OC(=O)N2CCOCC2)C(O)O1` (stereo partly drawn) [Example 3, (3S)-{3-cyclohexyl-(2S)-(morpholine-4-carbonyloxy)-propionylamino}-4-oxo-butyric acid], the “Selectivity for Cat. S over Cat. L” value on Cathepsin L is listed as “+ (+, >10)”. Moreover, the pKi on Caspase 3 and at Caspase 1 was under 5.00 throughout.
`O=C[C@H](CC(=O)O)NC(=O)[C@@H](CC(=O)N1CCOCC1)CC1CCCC1` [Example 4, (3S)-[(2R)-Cyclopentylmethyl-4-morpholin-4-yl-4-oxo-butyrylamino]-4-oxo-butyric acid]: the “Selectivity for Cat. S over Cat. L” value on Cathepsin L is listed as “++ (++, >100)”. Besides, the pKi on Caspase 3 and at Caspase 1 was under 5.00 each time.
On to `O=C1C[C@H](NC(=O)O[C@@H](CC2CCCC2)Cn2cnc3cc(Cl)c(Cl)cc32)C(O)O1` (stereo partly drawn) [Example 5, (3S)-[(1S)-Cyclopentylmethyl-2-(5,6-dichloro-benzoimidazol-1-yl)-ethoxycarbonylamino]-4-oxo-butyric acid], for which the “Selectivity for Cat. S over Cat. L” value on Cathepsin L is “+ (+, >10)”. Further, the pKi on Caspase 3 and on Caspase 1 was under 5.00 throughout.
`O=C1C[C@H](NC(=O)[C@@H](CC(=O)N2CCOCC2)CC2CCCCC2)C(O)O1` (stereo partly drawn) [Example 6, (3S)-{(2R)-Cyclohexylmethyl-4-morpholin-4-yl-4-oxo-butyrylamino}-4-oxo-butyric acid]: the “Selectivity for Cat. S over Cat. L” value at Cathepsin L is reported as “++ (++, >100)”. Also, the results for the negative logarithm of the Ki (pKi) at Caspase 3 and at Caspase 1 were under 5.00 and under 4.00, respectively.
`O=C1C[C@H](NC(=O)[C@H](CC2CCCCC2)NS(=O)(=O)c2cccc(OC(F)(F)F)c2)C(O)O1` (stereo partly drawn) [Example 7, (3S)-[3-Cyclohexyl-(2S)-(3-trifluoromethoxy-benzenesulfonylamino)-propionylamino]-4-oxo-butyric acid]: on Cathepsin L, the “Selectivity for Cat. S over Cat. L” value is given as “++ (++, >100)”. The negative-log Ki (pKi) on Caspase 3 and at Caspase 1 was under 5.00 each time.
For the compound `O=C1C[C@H](NC(=O)[C@H](CC2CCCC2)NS(=O)(=O)c2cccc(OC(F)(F)F)c2)C(O)O1` (stereo partly drawn) [Example 8, (3S)-[3-Cyclopentyl-(2S)-(3-trifluoromethoxy-benzenesulfonylamino)-propionylamino]-4-oxo-butyric acid], the “Selectivity for Cat. S over Cat. L” value on Cathepsin L is on record as “++ (++, >100)”. Also, the pKi at Caspase 3 is under 6.00; at Caspase 1, under 4.00.
Take `CC(C)(C)C[C@H](OC(=O)N[C@H]1CC(=O)OC1O)C(=O)N1CCOCC1` (stereo partly drawn) [Example 9, (3S)-[3,3-Dimethyl-(1S)-(morpholine-4-carbonyl)-butoxycarbonylamino]-4-oxo-butyric acid]: the “Selectivity for Cat. S over Cat. L” value on Cathepsin L was “++ (++, >100)”. The pKi on Caspase 3 and on Caspase 1 was under 4.00 in each case.
Turning to `O=C1C[C@H](NC(=O)O[C@@H](CC2CCCCC2)C(=O)N2CCOCC2)C(O)O1` (stereo partly drawn) [Example 10, (3S)-[2-cyclohexyl-(1S)-(morpholin-4-carbonyl)-ethoxycarbonylamino]-4-oxo-butyric acid], the “Selectivity for Cat. S over Cat. L” value at Cathepsin L is listed as “+++ (+++, >1000)”. In addition, the pKi on Caspase 3 and on Caspase 1 was under 4.00 in each case.
